Test results taken from patent publication US20090068290A1, “BIFEPRUNOX DOSES FOR TREATING SCHIZOPHRENIA” (priority 2006, published 2009).
“Also recorded” adds a separate entry of the source.

How the values were obtained:
[1] = test system: patients with chronic schizophrenia; assay: CGI-S score, Clinical Study Four; assay type: in vivo, human; details: FAS, ANCOVA; for CGI-S, Adjusted Mean Change from Baseline (LS mean): LOCF; for mean CGI-S scores, time points of statistically significant superiority to PBO: per-visit LOCF analysis
Experimental: METHODOLOGY: This study was a multinational, multicenter, randomized, double-blind, parallel-group, placebo-controlled, fixed-dose study. The study consisted of a 3- to 6-day antipsychotic-free run-in period, after which patients were randomised to 6 months of double-blind treatment with fixed doses of bifeprunox (20 mg/day (BX20) or 30 mg/day (BX30)) or placebo (PBO). Patients allocated to the BX groups were up-titrated from 0.25 mg/day over 7 days (BX20) or 8 days (BX30), and then continued on these doses for the remainder of the study. […] At predetermined time points, blood samples were obtained for drug concentration analysis of BX and its major metabolites (3′- and 4′-sulfate conjugates of BX), and pharmaco-economic assessments were performed.

CYP2C9, CYP3A4, CYP2D6 = assay: Metabolism and drug interactions of bifeprunox
Source text: The objective of this study is to assess the pharmacokinetics (PK) of bifeprunox. The PK of bifeprunox in healthy subjects were investigated based on a pooled analysis of PK parameters from 21 clinical pharmacology studies. The pooled analysis included PK profiles after single and multiple doses to 132 and 399 subjects, respectively, and explored the potential effects of age, gender, body weight, and race. In addition, PK in patients with schizophrenia were investigated using a population PK approach based on samples from 376 patients in phase II studies and 434 patients in phase III studies.

[2] = Laboratory assessments (prolactin, lipids), Clinical Study One; assay type: in vivo, human
Source text: METHOD: A 6-Week randomized, placebo-controlled, risperidone-referenced dose-finding study included 589 randomized patients with an acute exacerbation of schizophrenia (DSM-IV-TR). […] The change in the Positive and Negative Symptom Scale (PANSS) total score, from baseline to endpoint, was the primary outcome measure. Secondary efficacy measures included: PANSS positive, PANSS negative, PANSS general psychopathology (GPP) score, PANSS-derived Brief Psychiatric Rating Scale (BPRS) score, Clinical Global Impressions-Severity of Illness (CGI-S), CGI-Improvement (CGI-I) scores, and responder rates. Safety and tolerability evaluations included extrapyramidal symptoms (EPS), weight gain, lipid profile, and serum prolactin. Risperidone was included for assay sensitivity.

O=c1[nH]c2cccc(N3CCN(Cc4cccc(-c5ccccc5)c4)CC3)c2o1 [Bifeprunox, 7-[4-([1,1′-biphenyl]-3-ylmethyl)-1-piperazinyl]-2(3H)-benzoxazolone]
CGI-S, Adjusted Mean Change from Baseline (LS mean) ([1]; Month 6, listed as BX20): −0.1
CGI-S, Adjusted Mean Change from Baseline (LS mean) ([1]; Month 6, listed as BX30): 0.0
CGI-S, Adjusted Mean Change from Baseline (LS mean) ([1]; Week 6, listed as BX20): −0.2
CGI-S, Adjusted Mean Change from Baseline (LS mean) ([1]; Week 6, listed as BX30): −0.1
mean CGI-S scores, time points of statistically significant superiority to PBO ([1]; listed as BX20): Months 3, 4, 5, and 6
mean CGI-S scores, time points of statistically significant superiority to PBO ([1]; listed as BX30): Months 5 and 6
metabolizing enzymes (CYP2C9, CYP3A4, CYP2D6; human, in vivo): metabolized by CYP2C9, CYP3A4 and to a lesser extent, CYP2D6
interaction potential (CYP2C9, CYP3A4, CYP2D6; in vivo): low interaction potential
plasma levels in CYP2C9 slow/intermediate metabolizers (CYP2C9, CYP3A4, CYP2D6; vs subjects with normal enzyme activity): higher plasma levels
bifeprunox exposure on co-administration (CYP2C9, CYP3A4, CYP2D6; with carbamazepine (CYP3A4 inducer)): reduced
bifeprunox exposure on co-administration (CYP2C9, CYP3A4, CYP2D6; with fluconazole (CYP2C9 inhibitor)): increased
prolactin ([2]; bifeprunox 5-20 mg, 6 weeks, vs placebo): decreased prolactin levels; also recorded: a decrease in prolactin compared with the placebo group
non-fasting triglycerides and total cholesterol compared to placebo ([2]; bifeprunox, 6 weeks (Example 4)): statistically significant improvements
